Measurements from PubChem BioAssay AID330 (DTP/NCI, 2004).
“And” between values parts separate entries of the source, which are not always exact repeats. Equal entries are not always repeated. Toxic doses and inconclusive results are not listed. The calls were made as follows: active = survival T/C of 150% or more; inactive = T/C below 125% in these data.

System: P388 leukemia ip, CD2F1 mice, survival T/C
Assay: NCI In Vivo Anticancer Drug Screen. Data for tumor model P388 Leukemia (intraperitoneal) in CD2F1 (CDF1) mice
Conditions: endpoint: median survival time, higher = longer survival
In short: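 Mice carrying the transplanted tumor received test compound or vehicle. Survival was recorded in each group, and the value is the treated-group measurement divided by that of the vehicle-treated control group.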

[1] = dose: 12.5 mg/kg/injection, schedule: Q01DX009 (ip), vehicle: saline with Tween-80
[2] = dose: 25.0 mg/kg/injection, schedule: Q01DX009 (ip), vehicle: saline with Tween-80
[3] = dose: 50.0 mg/kg/injection, schedule: Q01DX009 (ip), vehicle: saline with Tween-80
[4] = dose: 100.0 mg/kg/injection, schedule: Q01DX009 (ip), vehicle: saline with Tween-80

Measured: T/C

Cc1nc(C)n2c(C)nnc2c1C
inactive: dose: 25.0 mg/kg/injection, schedule: Q04DX003 (ip), vehicle: saline 101 % of control | dose: 50.0 mg/kg/injection, schedule: Q04DX003 (ip), vehicle: saline 111 % of control | dose: 100.0 mg/kg/injection, schedule: Q04DX003 (ip), vehicle: saline 109 % of control

CC(CCOc1ccc2ccc(=O)oc2c1)C1=CC(=O)C(C)(C)O1 (stereo not drawn)
inactive: [1] 103 % of control | [2] 90 % of control | [3] 116 % of control | [4] 116 % of control

Cc1cc(=O)[nH]c2nc3ccccc3n12
inactive: [3] 95 % of control | [4] 96 % of control | dose: 200.0 mg/kg/injection, schedule: Q01DX009 (ip), vehicle: saline with Tween-80 100 % of control | dose: 400.0 mg/kg/injection, schedule: Q01DX009 (ip), vehicle: saline with Tween-80 104 % of control

C#CC1=CC(=O)C(OC)=CC1=O
inactive: dose: 7.5 mg/kg/injection, schedule: Q01DX005 (ip), vehicle: Klucel (hydroxypropylcellulose) (HPC) 99 % of control | dose: 15.0 mg/kg/injection, schedule: Q01DX005 (ip), vehicle: Klucel (hydroxypropylcellulose) (HPC) 100 % of control

CNC(=O)OCc1c(COC(=O)NC)c(C)n(-c2ccc(Cl)cc2)c1C
active: dose: 12.5 mg/kg/injection, schedule: Q01DX009 (ip), vehicle: saline 160 % of control | dose: 25.0 mg/kg/injection, schedule: Q01DX009 (ip), vehicle: saline 166 % of control

C=C1N(c2nc(Cl)nc(Cl)n2)c2ccccc2C1(C)C
inactive: [1] 113 % of control | [2] 104 % of control | [3] 124 % of control and 86 % of control

C=C(COC(C)=O)CC(CC(=C)CC(OC(C)=O)Sc1ccccc1)S(=O)(=O)c1ccccc1 (stereo not drawn)
inactive: dose: 60.0 mg/kg/injection, schedule: Q01DX005 (ip), vehicle: saline + Tween-80 + alcohol 106 % of control | dose: 120.0 mg/kg/injection, schedule: Q01DX005 (ip), vehicle: saline + Tween-80 + alcohol 104 % of control | dose: 240.0 mg/kg/injection, schedule: Q01DX005 (ip), vehicle: saline + Tween-80 + alcohol 104 % of control

COc1cc(OC)c2c(c1Cl)OCC2=O
inactive: dose: 50.0 mg/kg/injection, schedule: Q01DX009 (ip), vehicle: saline sonified 95 % of control | dose: 100.0 mg/kg/injection, schedule: Q01DX009 (ip), vehicle: saline sonified 104 % of control | dose: 200.0 mg/kg/injection, schedule: Q01DX009 (ip), vehicle: saline sonified 100 % of control

CCCC/C=C(\C#N)SCC
inactive: dose: 37.5 mg/kg/injection, schedule: Q01DX009 (ip), vehicle: saline with Tween-80 100 % of control and 112 % of control and 118 % of control | dose: 75.0 mg/kg/injection, schedule: Q01DX009 (ip), vehicle: saline with Tween-80 105 % of control and 114 % of control and 119 % of control | dose: 150.0 mg/kg/injection, schedule: Q01DX009 (ip), vehicle: saline with Tween-80 106 % of control and 123 % of control | dose: 300.0 mg/kg/injection, schedule: Q01DX009 (ip), vehicle: saline with Tween-80 104 % of control
